The source of these data is US20040006043A1, “Methods, pharmaceutical compositions and pharmaceutical kits for enhancing the therapeutic efficiency of cancer chemotherapeutic agents” (RAMOT UNIVERSITY AUTHORITY FOR APPLIED RESEARCH & …, priority 2002, published 2004).

One series concerns C6 cells. The following applies: doxorubicin efflux, absence of a chemosensitizer. The protocol:
Cells were grown in monolayers as described above. Several days prior to an experiment the cells (at a density in the range of 5×10^4-5×10^5 cells/ml) were seeded into 6 multiwell culture plates. The experiments were performed when the cells reached confluency.
At the end of the incubation the media was removed and the cells were incubated with “drug free media”, which consisted of either buffer alone, for cells loaded with drug only, or buffer that contained the chemosensitizer used at the same dose as in the incubation, for the cells loaded with the drug and the chemosensitizer. This replacement of the loading with the “drug free media” was performed in order to create the driving force for drug efflux from the cell into that external media. At designated periods (time points), the external media was collected and thereafter replaced by fresh “drug free media”, in order to maintain a unidirectional flux, from the cell out. The drug concentration was measured in each of the collected media, and in the cells at the end of the experiment.

Another series concerns C26 cells. In words: Survival of BALB/c mice inoculated with C26 tumor cells. The class given is in vivo. The following applies: C26 cells in right-hind foot pad. The method, then: BALB/c mice, female, 8 weeks old at the initiation of experiments were tested. Experiments were performed with 35 mice that were divided into 5 groups.
Mitomycin C (MMC), injection dose of 10 mg/Kg body.
C26 cells (originating from mouse colon carcinoma) were grown in cell culture flask essentially as described above under the in vitro experiments. At day 0 of the experiment, the cells were harvested, washed several times with PBS and at the final wash with Hank's buffer, counted and immediately injected subcutaneously into the right-hind foot pad of the mice. The injected dose was 5×10^5 cells/30 μl.
Saline and the chemotherapeutic formulations were administered on days 5, 12 and 19 of the experiment, by injection into the tail vein. All the injected volumes were 0.1 ml. Lithium, at 1 mM, was given in the drinking water continuously throughout the experiment, from the day of tumor inoculation.
35 mice, inoculated with tumor cells, were divides into groups and each group received a different treatment, as described hereinabove and is presented in Table 2 above. The animal survival was monitored continuously, from the first day of tumor inoculation.
FIG. 8 presents the animal survival, expressed in percentages of the total number of animals in the group.

For series [1] the following is noted: Lithium 1 mM; cited from earlier work.

Take `COc1cccc2c1C(=O)c1c(O)c3c(c(O)c1C2=O)C[C@@](O)(C(=O)CO)C[C@@H]3O[C@H]1C[C@H](N)[C@H](O)[C@H](C)O1` [F-DOX, doxorubicin]: in the series on C6 cells, the “fraction of total intracellular drug load diffused out of the cell after 5 minutes” value was “about 30%” and the “time for complete depletion of the cell from the drug” value is not above 3 h.
With `CO[C@@]12[C@H](COC(N)=O)C3=C(C(=O)C(C)=C(N)C3=O)N1C[C@@H]1N[C@@H]12` [Free MMC, Mitomycin C], the “day on which all animals were dead” value in the series with C26 cells (MMC 10 mg/Kg i.v. on days 5, 12, 19) was 33 days. Besides, in the series on C26 cells (MMC 10 mg/Kg i.v. on days 5, 12, 19, Lithium 1 mM in drinking water where given), the “day on which animals started dying” value was found to be 29 days.
With `[Li]` [Lithium], in series [1], the “in vivo safety of the in vitro dose” value is listed as “within the in vivo safe range”.
